According to patent publication US8754105B2, “Macrocyclic inhibitors of hepatitis C virus” (Medivir AB, priority 2005, dated 2014):

Experiments:
[1] = test system: HCV type 1b replicon in Huh-7 luc/neo cells; assay: HCV replicon assay (Huh-Luc cells, luciferase readout); format: cell-based; conditions: Hepatitis C virus, Huh-7, 72 h, three days incubation, luciferase activity
Description: The compounds of formula (I) were examined for activity in the inhibition of HCV RNA replication in a cellular assay. […] The cellular assay was based on a bicistronic expression construct, as described by Lohmann et al. (1999) Science vol. 285 pp. 110-113 with modifications described by Krieger et al. (2001) Journal of Virology 75: 4614-4624, in a multi-target screening strategy. In essence, the method was as follows.
The assay utilized the stably transfected cell line Huh-7 luc/neo (hereafter referred to as Huh-Luc). This cell line harbors an RNA encoding a bicistronic expression construct comprising the wild type NS3-NS5B regions of HCV type 1b translated from an Internal Ribosome Entry Site (IRES) from encephalomyocarditis virus (EMCV), preceded by a reporter portion (FfL-luciferase), and a selectable marker portion (neo^R, neomycine phosphotransferase). The construct is bordered by 5′ and 3′ NTRs (non-translated regions) from HCV type 1b. Continued culture of the replicon cells in the presence of G418 (neo^R) is dependent on the replication of the HCV RNA. The stably transfected replicon cells that express HCV RNA, which replicates autonomously and to high levels, encoding inter alia luciferase, are used for screening the antiviral compounds.
The replicon cells were plated in 384 well plates in the presence of the test and control compounds which were added in various concentrations. Following an incubation of three days, HCV replication was measured by assaying luciferase activity (using standard luciferase assay substrates and reagents and a Perkin Elmer ViewLux™ ultraHTS microplate imager). Replicon cells in the control cultures have high luciferase expression in the absence of any inhibitor. The inhibitory activity of the compound on luciferase activity was monitored on the Huh-Luc cells, enabling a dose-response curve for each test compound.

[2] = target: full-length hepatitis C NS3 protease with NS4A cofactor (Hepatitis C virus genotype 1a (isolate H77) (HCV), UniProt P27958); assay: HCV NS3/4A protease inhibition (enzymatic) assay
full-length hepatitis C NS3 protease with NS4A cofactor, sequence (P27958 1027-1657): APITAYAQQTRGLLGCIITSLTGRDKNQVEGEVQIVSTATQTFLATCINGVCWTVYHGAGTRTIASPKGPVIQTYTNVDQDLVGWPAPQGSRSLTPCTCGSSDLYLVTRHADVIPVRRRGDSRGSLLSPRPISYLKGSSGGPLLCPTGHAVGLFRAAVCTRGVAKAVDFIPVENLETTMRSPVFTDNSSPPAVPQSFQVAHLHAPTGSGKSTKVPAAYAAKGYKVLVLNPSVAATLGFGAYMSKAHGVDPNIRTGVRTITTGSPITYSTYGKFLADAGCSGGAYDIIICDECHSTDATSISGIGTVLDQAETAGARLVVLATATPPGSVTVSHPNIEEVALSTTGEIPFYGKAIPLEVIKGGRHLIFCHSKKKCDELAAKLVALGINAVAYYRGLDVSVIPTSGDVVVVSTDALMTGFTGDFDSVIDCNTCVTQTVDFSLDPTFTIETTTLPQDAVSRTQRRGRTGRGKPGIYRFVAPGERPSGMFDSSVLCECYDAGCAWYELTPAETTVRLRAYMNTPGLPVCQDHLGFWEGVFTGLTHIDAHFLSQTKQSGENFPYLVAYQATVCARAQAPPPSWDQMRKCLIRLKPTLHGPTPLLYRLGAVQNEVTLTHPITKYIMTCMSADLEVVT
Description: The aim of this in vitro assay was to measure the inhibition of HCV NS3/4A protease complexes by the compounds of the present invention.
The inhibition of full-length hepatitis C NS3 protease enzyme was measured essentially as described in Poliakov, 2002 Prot Expression & Purification 25 363 371. Briefly, the hydrolysis of a depsipeptide substrate, Ac-DED(Edans)EEAbuψ[COO]ASK(Dabcyl)-NH2 (AnaSpec, San José, USA), was measured spectrofluorometrically in the presence of a peptide cofactor, [sequence] […] The enzyme (1 nM) was incubated in 50 mM HEPES, pH 7.5, 10 mM DTT, 40% glycerol, 0.1% n-octyl-D-glucoside, with 25 μM NS4A cofactor and inhibitor at 30° C. for 10 min, whereupon the reaction was initiated by addition of 0.5 μM substrate. Inhibitors were dissolved in DMSO, sonicated for 30 sec. and vortexed. The solutions were stored at −20° C. between measurements.
The final concentration of DMSO in the assay sample was adjusted to 3.3%. The rate of hydrolysis was corrected for inner filter effects according to published procedures. […] A minimum of two replicates was performed for all measurements.

SMILES | EC50 [1] | Ki [2]
COc1ccc2c(O[C@@H]3C[C@H]4C(=O)N[C@]5(C(=O)O)C[C@H]5/C=C\CCCCCOC(=O)N4C3)cc(-c3ccccc3)nc2c1 [Compound 24, 18-(7-methoxy-2-phenylquinolin-4-yloxy)-2,15-dioxo-3,16-diaza-14-oxatricyclo[14.3.0.0^4,6]nonadec-7-ene-4-carboxylic acid] | > 10000 nM | 40 nM
COc1ccc2c(O[C@@H]3C[C@H]4C(=O)N[C@]5(C(=O)O)C[C@H]5/C=C\CCCCOC(=O)N4C3)nc(Cl)cc2c1 [Compound 16, 17-(3-chloro-6-methoxyisoquinolin-1-yloxy)-2,14-dioxo-3,15-diaza-13-oxatricyclo[13.3.0.0^4,6]octadec-7-ene-4-carboxylic acid] | > 10000 nM | 1000 nM
COc1ccc2c(O[C@@H]3C[C@H]4C(=O)N[C@]5(C(=O)NS(=O)(=O)C6CC6)C[C@H]5/C=C\CCCCOC(=O)N4C3)nc(Cl)cc2c1 [Compound 17, N-[17-(3-chloro-6-methoxyisoquinolin-1-yloxy)-2,14-dioxo-3,15-diaza-13-oxatricyclo[13.3.0.0^4,6]octadec-7-ene-4-carbonyl](cyclopropyl) sulfonamide] | > 10000 nM | 43 nM
COc1ccc2c(O[C@@H]3C[C@H]4C(=O)N[C@]5(C(=O)O)C[C@H]5/C=C\CCCCOC(=O)N4C3)cc(-c3ccccc3)nc2c1 [Compound 22, 17-(7-methoxy-2-phenylquinolin-4-yloxy)-2,14-dioxo-3,15-diaza-13-oxatricyclo[13.3.0.0^4,6]octadec-7-ene-4-carboxylic acid] | > 10000 nM | 1070 nM
COc1ccc2c(O[C@@H]3C[C@H]4C(=O)N[C@]5(C(=O)NS(=O)(=O)C6CC6)C[C@H]5/C=C\CCCCCOC(=O)N4C3)cc(-c3ccccc3)nc2c1 [Compound 25, N-[18-(7-methoxy-2-phenylquinolin-4-yloxy)-2,15-dioxo-3,16-diaza-14-oxatricyclo[14.3.0.0^4,6]nonadec-7-ene-4-carbonyl](cyclopropyl)-sulfonamide] | 481 nM | 2.4 nM
COc1ccc2c(O[C@@H]3C[C@H]4C(=O)N[C@]5(C(=O)NS(=O)(=O)C6CC6)C[C@H]5/C=C\CCCCOC(=O)N4C3)cc(-c3ccccc3)nc2c1 [Compound 23, N-[17-(7-methoxy-2-phenylquinolin-4-yloxy)-2,14-dioxo-3,15-diaza-13-oxatricyclo[13.3.0.0^4,6]octadec-7-ene-4-carbonyl](cyclopropyl)-sulfonamide] | 1080 nM | 0.2 nM
